The values below come from US8796466B2, “Hepatitis C virus inhibitors” (Bristol-Myers Squibb Company, priority 2009, dated 2014).

The test system of the first test is HCV 1b genotype. The experiment in a line: HCV Replicon assay (HCV 1b genotype). Format: cell-based, Hepatitis C virus. Particulars: HCV 1b genotype replicon; class symbol; read-out: Range (EC50 values against HCV 1b). The gist of the method:
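HCV-neo replicon cells, wild-type plus lines carrying NS5A-region mutations, were exposed to compound; luciferase-reporter replicon variants were also used.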
For orientation: In antiviral work, replicon cells carry a viral genome segment that copies itself.
The term EC50 denotes the concentration at which the effect is half-maximal. Take `COC(=O)N[C@@H](C(=O)N1CCC[C@H]1c1nc(-c2ccc(COCc3cccc(-c4c[nH]c([C@@H]5CCCN5C(=O)[C@H](NC(=O)OC)c5ccccc5)n4)c3)cc2)c[nH]1)c1ccccc1` [OL-22]: the half-maximal effective concentration (EC50) lay within 0.002 to 0.099 nM.

Staying with this test, now noted: Hepatitis C virus; HCV 1b genotype replicon; Effective 50% inhibitory concentration; read-out: 1b EC50.
`O=C([C@H](O)c1ccccc1)N1CCC[C@H]1c1nc(-c2ccc(COCc3ccc(-c4cnc([C@@H]5CCCN5C(=O)[C@H](O)c5ccccc5)[nH]4)cc3)cc2)c[nH]1` [OL-15, (1R)-2-((2S)-2-(4-(4-(((4-(2-((2S)-1-((2R)-2-hydroxy-2-phenylacetyl)-2-pyrrolidinyl)-1H-imidazol-5-yl)benzyl)oxy)methyl)phenyl)-1H-imidazol-2-yl)-1-pyrrolidinyl)-2-oxo-1-phenylethanol]: the EC50 turned out to be 1.1 nM.

Still in this test, the particulars now being: Hepatitis C virus; HCV 1b genotype replicon; class symbol; read-out: Range (EC50 values against HCV 1b).
As for `CN(C)[C@@H](C(=O)N1CCC[C@H]1c1ncc(-c2ccc(CCc3ccc(-c4cnc([C@@H]5CCCN5C(=O)[C@@H](c5ccccc5)N(C)C)[nH]4)cc3)cc2)[nH]1)c1ccccc1` [OL-9, (1R)-2-((2S)-2-(4-(4-(2-(4-(2-((2S)-1-((2R)-2-(dimethylamino)-2-phenylacetyl)-2-pyrrolidinyl)-1H-imidazol-5-yl)phenyl)ethyl)phenyl)-1H-imidazol-2-yl)-1-pyrrolidinyl)-N,N-dimethyl-2-oxo-1-phenylethanamine], the EC50 lay in the range of 0.002 to 0.099 nM.
Still for that read-out and setting: under `O=C([C@H](O)c1ccccc1)N1CCC[C@H]1c1nc(-c2ccc(CCc3ccc(-c4c[nH]c([C@@H]5CCCN5C(=O)[C@H](O)c5ccccc5)n4)cc3)cc2)c[nH]1` [OL-10, (1R,1′R)-2,2′-(1,2-ethanediylbis(4,1-phenylene-1H-imidazole-4,2-diyl(2S)-2,1-pyrrolidinediyl))bis(2-oxo-1-phenylethanol)] stands 0.002 to 0.099 nM; under `COC(=O)N[C@@H](C(=O)N1CCC[C@H]1c1nc(-c2ccc(CCc3ccc(-c4c[nH]c([C@@H]5CCCN5C(=O)[C@H](NC(=O)OC)c5ccccc5)n4)cc3)cc2)c[nH]1)c1ccccc1` [OL-11, dimethyl (1,2-ethanediylbis(4,1-phenylene-1H-imidazole-4,2-diyl(2S)-2,1-pyrrolidinediyl((1R)-2-oxo-1-phenyl-2,1-ethanediyl)))biscarbamate], 0.002 to 0.099 nM.
For the molecule `CCNC(=O)N[C@@H](C(=O)N1CCC[C@H]1c1nc(-c2ccc(CCc3ccc(-c4c[nH]c([C@@H]5CCCN5C(=O)[C@H](NC(=O)NCC)c5ccccc5)n4)cc3)cc2)c[nH]1)c1ccccc1` [OL-12, N′,N′″-(1,2-ethanediylbis(4,1-phenylene-1H-imidazole-4,2-diyl(2S)-2,1-pyrrolidinediyl((1R)-2-oxo-1-phenyl-2,1-ethanediyl)))bis(1-ethylurea)], the concentration for a half-maximal effect (EC50) lay within 0.002 to 0.099 nM.
For `O=C(NC1CCCC1)N[C@@H](C(=O)N1CCC[C@H]1c1nc(-c2ccc(CCc3ccc(-c4cnc([C@@H]5CCCN5C(=O)[C@H](NC(=O)NC5CCCC5)c5ccccc5)[nH]4)cc3)cc2)c[nH]1)c1ccccc1` [OL-13, 1-cyclopentyl-3-((1R)-2-((2S)-2-(4-(4-(2-(4-(2-((2S)-1-((2R)-2-((cyclopentylcarbamoyl)amino)-2-phenylacetyl)-2-pyrrolidinyl)-1H-imidazol-5-yl)phenyl)ethyl)phenyl)-1H-imidazol-2-yl)-1-pyrrolidinyl)-2-oxo-1-phenylethyl)urea], the EC50 fell in the range of 0.002 to 0.099 nM.
Consider `CN(C)[C@@H](C(=O)N1CCC[C@H]1c1ncc(-c2ccc(COCc3ccc(-c4cnc([C@@H]5CCCN5C(=O)[C@@H](c5ccccc5)N(C)C)[nH]4)cc3)cc2)[nH]1)c1ccccc1` [OL-14, (1R)-2-((2S)-2-(4-(4-(((4-(2-((2S)-1-((2R)-2-(dimethylamino)-2-phenylacetyl)-2-pyrrolidinyl)-1H-imidazol-5-yl)benzyl)oxy)methyl)phenyl)-1H-imidazol-2-yl)-1-pyrrolidinyl)-N,N-dimethyl-2-oxo-1-phenylethanamine], for which the EC50 is 0.1 to 0.99 nM.
As for `O=C([C@H](O)c1ccccc1)N1CCC[C@H]1c1nc(-c2ccc(COCc3ccc(-c4cnc([C@@H]5CCCN5C(=O)[C@H](O)c5ccccc5)[nH]4)cc3)cc2)c[nH]1` [OL-15, (1R)-2-((2S)-2-(4-(4-(((4-(2-((2S)-1-((2R)-2-hydroxy-2-phenylacetyl)-2-pyrrolidinyl)-1H-imidazol-5-yl)benzyl)oxy)methyl)phenyl)-1H-imidazol-2-yl)-1-pyrrolidinyl)-2-oxo-1-phenylethanol], the 50% effective concentration (EC50) lay in the range of 1 to 9.9 nM.
Same read-out and setting: under `COC(=O)N[C@@H](C(=O)N1CCC[C@H]1c1nc(-c2ccc(COCc3ccc(-c4c[nH]c([C@@H]5CCCN5C(=O)[C@H](NC(=O)OC)c5ccccc5)n4)cc3)cc2)c[nH]1)c1ccccc1` [OL-16, dimethyl (oxybis(methylene-4,1-phenylene-1H-imidazole-4,2-diyl(2S)-2,1-pyrrolidinediyl((1R)-2-oxo-1-phenyl-2,1-ethanediyl)))biscarbamate] stands 0.002 to 0.099 nM.
Turning to `CNC(=O)N[C@@H](C(=O)N1CCC[C@H]1c1nc(-c2ccc(COCc3ccc(-c4cnc([C@@H]5CCCN5C(=O)[C@H](NC(=O)NC)c5ccccc5)[nH]4)cc3)cc2)c[nH]1)c1ccccc1` [OL-17, 1-methyl-3-((1R)-2-((2S)-2-(4-(4-(((4-(2-((2S)-1-((2R)-2-((methylcarbamoyl)amino)-2-phenylacetyl)-2-pyrrolidinyl)-1H-imidazol-5-yl)benzyl)oxy)methyl)phenyl)-1H-imidazol-2-yl)-1-pyrrolidinyl)-2-oxo-1-phenylethyl)urea], the EC50 was 0.002 to 0.099 nM.
`CCNC(=O)N[C@@H](C(=O)N1CCC[C@H]1c1nc(-c2ccc(COCc3ccc(-c4cnc([C@@H]5CCCN5C(=O)[C@H](NC(=O)NCC)c5ccccc5)[nH]4)cc3)cc2)c[nH]1)c1ccccc1` [OL-18, 1-ethyl-3-((1R)-2-((2S)-2-(4-(4-(((4-(2-((2S)-1-((2R)-2-((ethylcarbamoyl)amino)-2-phenylacetyl)-2-pyrrolidinyl)-1H-imidazol-5-yl)benzyl)oxy)methyl)phenyl)-1H-imidazol-2-yl)-1-pyrrolidinyl)-2-oxo-1-phenylethyl)urea]: the half-maximal effective concentration (EC50) was in the range of 0.002 to 0.099 nM.
Take `O=C(NC1CCCC1)N[C@@H](C(=O)N1CCC[C@H]1c1nc(-c2ccc(COCc3ccc(-c4cnc([C@@H]5CCCN5C(=O)[C@H](NC(=O)NC5CCCC5)c5ccccc5)[nH]4)cc3)cc2)c[nH]1)c1ccccc1` [OL-19, 1-cyclopentyl-3-((1R)-2-((2S)-2-(4-(4-(((4-(2-((2S)-1-((2R)-2-((cyclopentylcarbamoyl)amino)-2-phenylacetyl)-2-pyrrolidinyl)-1H-imidazol-5-yl)benzyl)oxy)methyl)phenyl)-1H-imidazol-2-yl)-1-pyrrolidinyl)-2-oxo-1-phenylethyl)urea]: the concentration giving a half-maximal response (EC50) was 1 to 9.9 nM.
Same read-out and setting: under `CN(C)[C@@H](C(=O)N1CCC[C@H]1c1ncc(-c2ccc(COCc3cccc(-c4cnc([C@@H]5CCCN5C(=O)[C@@H](c5ccccc5)N(C)C)[nH]4)c3)cc2)[nH]1)c1ccccc1` [OL-20, (1R)-2-((2S)-2-(4-(3-(((4-(2-((2S)-1-((2R)-2-(dimethylamino)-2-phenylacetyl)-2-pyrrolidinyl)-1H-imidazol-4-yl)benzyl)oxy)methyl)phenyl)-1H-imidazol-2-yl)-1-pyrrolidinyl)-N,N-dimethyl-2-oxo-1-phenylethanamine] stands 0.1 to 0.99 nM; under `O=C([C@H](O)c1ccccc1)N1CCC[C@H]1c1nc(-c2ccc(COCc3cccc(-c4c[nH]c([C@@H]5CCCN5C(=O)[C@H](O)c5ccccc5)n4)c3)cc2)c[nH]1` [OL-21, (1R)-2-((2S)-2-(4-(3-(((4-(2-((2S)-1-((2R)-2-hydroxy-2-phenylacetyl)-2-pyrrolidinyl)-1H-imidazol-4-yl)benzyl)oxy)methyl)phenyl)-1H-imidazol-2-yl)-1-pyrrolidinyl)-2-oxo-1-phenylethanol], 0.1 to 0.99 nM; under `CNC(=O)N[C@@H](C(=O)N1CCC[C@H]1c1nc(-c2ccc(COCc3cccc(-c4c[nH]c([C@@H]5CCCN5C(=O)[C@H](NC(=O)NC)c5ccccc5)n4)c3)cc2)c[nH]1)c1ccccc1` [OL-23, 1-methyl-3-((1R)-2-((2S)-2-(4-(3-(((4-(2-((2S)-1-((2R)-2-((methylcarbamoyl)amino)-2-phenylacetyl)-2-pyrrolidinyl)-1H-imidazol-4-yl)benzyl)oxy)methyl)phenyl)-1H-imidazol-2-yl)-1-pyrrolidinyl)-2-oxo-1-phenylethyl)urea], 0.1 to 0.99 nM.
On the same count and under the same terms, the value for `CCNC(=O)N[C@@H](C(=O)N1CCC[C@H]1c1nc(-c2ccc(COCc3cccc(-c4c[nH]c([C@@H]5CCCN5C(=O)[C@H](NC(=O)NCC)c5ccccc5)n4)c3)cc2)c[nH]1)c1ccccc1` [OL-24, 1-ethyl-3-((1R)-2-((2S)-2-(4-(3-(((4-(2-((2S)-1-((2R)-2-((ethylcarbamoyl)amino)-2-phenylacetyl)-2-pyrrolidinyl)-1H-imidazol-4-yl)benzyl)oxy)methyl)phenyl)-1H-imidazol-2-yl)-1-pyrrolidinyl)-2-oxo-1-phenylethyl)urea] was 0.002 to 0.099 nM; that for `O=C(NC1CCCC1)N[C@@H](C(=O)N1CCC[C@H]1c1nc(-c2ccc(COCc3cccc(-c4c[nH]c([C@@H]5CCCN5C(=O)[C@H](NC(=O)NC5CCCC5)c5ccccc5)n4)c3)cc2)c[nH]1)c1ccccc1` [OL-25, 1-cyclopentyl-3-((1R)-2-((2S)-2-(4-(3-(((4-(2-((2S)-1-((2R)-2-((cyclopentylcarbamoyl)amino)-2-phenylacetyl)-2-pyrrolidinyl)-1H-imidazol-4-yl)benzyl)oxy)methyl)phenyl)-1H-imidazol-2-yl)-1-pyrrolidinyl)-2-oxo-1-phenylethyl)urea] was 0.002 to 0.099 nM; that for `COC(=O)N[C@H](C(=O)N1[C@@H]2C[C@@H]2C[C@H]1c1nc(-c2ccc([C@@H]3C[C@H]3c3ccc(-c4c[nH]c([C@@H]5C[C@H]6C[C@H]6N5C(=O)[C@@H](NC(=O)OC)C(C)C)n4)cc3)cc2)c[nH]1)C(C)C` [m9.5, methyl ((1S)-1-(((1R,3S,5R)-3-(4-(4-((1R,2R)-2-(4-(2-((1R,3S,5R)-2-((2S)-2-((methoxycarbonyl)amino)-3-methylbutanoyl)-2-azabicyclo[3.1.0]hex-3-yl)-1H-imidazol-4-yl)phenyl)cyclopropyl)phenyl)-1H-imidazol-2-yl)-2-azabicyclo[3.1.0]hex-2-yl)carbonyl)-2-methylpropyl)carbamate] was 0.002 to 0.099 nM.

A further test deals with HCV.
Test: not given
Particulars: literature references; cited from earlier work.
As for cyclosporin A, the “activity against HCV in clinical trials” value is on record as “active against HCV”.
